Results from patent US20210040116A1, “New Polymorphs of Dolutegravir Sodium” (CIPLA LIMITED, priority 2017, published 2021).

What was measured:
[1] = Comparative intrinsic dissolution; format: physicochemical; conditions: 0.01M pH 6.8 phosphate buffer containing 0.25% w/v SDS, 37° C., 50 rpm
Description: The following data illustrates the dissolution of the crystalline form of dolutegravir sodium disclosed in WO2010068253 (i.e. not the hydrate), compared to crystalline Form 1A of the present invention (i.e. crystalline Form 1A of dolutegravir sodium).
Dissolution medium: 0.01M pH 6.8 phosphate buffer containing 0.25% w/v sodium dodecyl sulfate (SDS)
FIG. 5 is a graphical comparison of the intrinsic dissolution of the solid crystalline Form 1A of dolutegravir sodium of the present invention and the crystalline form of dolutegravir sodium disclosed in WO2010068253. The solid line represents the dissolution of solid crystalline Form 1A of dolutegravir sodium of the present invention, with the dotted line representing the dissolution of the crystalline form of dolutegravir sodium disclosed in WO2010068253.

[2] = Bulk density and tapped density (USP <616> method I); format: physicochemical
Description: Suitable methods for determining the bulk density and tapped density of the crystalline form 1A of dolutegravir sodium of the present invention and the crystalline form of dolutegravir sodium form disclosed in WO2010068253 will be well known to the skilled chemist. For example, USP <616> method I may be used.

% Release ([1]; 5 minutes)	% Release ([1]; 15 minutes)	% Release ([1]; 30 minutes)	% Release ([1]; 60 minutes)	% Release ([1]; 120 minutes)	% Release ([1]; 240 minutes)	% Release ([1]; 360 minutes)	% Release ([1]; 480 minutes)	% Release ([1]; 600 minutes)	% Release ([1]; 720 minutes)	tapped density [2]	bulk density [2]	Compound
26%	45%	73%	66%	79%	82%	81%	85%	86%	82%	0.7 to 0.8 g/mL		C[C@@H]1CCO[C@H]2Cn3cc(C(=O)NCc4ccc(F)cc4F)c(=O)c([O-])c3C(=O)N12.[Na+] [Form 1A, sodium (4R,12aS)-9-{[(2,4,-difluorophenyl)methyl]carbamoyl}-4-methyl-6,8-dioxo-3,4,6,8,12,12a-hexahydro-2H-pyrido[1′,2′:4,5]pyrazino[2,1-b][1,3]oxazin-7-olate]
5%	13%	20%	56%	68%	74%	72%	73%	73%	74%		0.2 to 0.3 g/mL	C[C@@H]1CCO[C@H]2Cn3cc(C(=O)NCc4ccc(F)cc4F)c(=O)c([O-])c3C(=O)N12.[Na+] [crystalline form of dolutegravir sodium disclosed in WO20100] [sodium (4R,12aS)-9-{[(2,4,-difluorophenyl)methyl]carbamoyl}-4-methyl-6,8-dioxo-3,4,6,8,12,12a-hexahydro-2H-pyrido[1′,2′:4,5]pyrazino[2,1-b][1,3]oxazin-7-olate]
